Data on three compounds can be found in US20110275693A1, “Pharmaceutical Compositions Comprising 2-Oxo-1-Pyrrolidine Derivatives” (UCB PHARMA, S.A., priority 2009, published 2011).

Experiment [1] deals with genetically sound-sensitive male mice. As to the kind of experiment: Audiogenic seizures in mice. In kind it is in vivo. The conditions noted are these: audiogenic seizure-susceptible mice; brivaracetam i.p. 30 min, levetiracetam i.p. 60 min pretreatment. Here is the method:
Audiogenic seizures in mice: Genetically sound-sensitive male mice (16-28 g; n=10 per group), responding with wild running, clonic and tonic convulsions to an acoustic stimulation, were used. Audiogenic seizures were induced by an acoustic stimulus (90 dB, 10-20 kHz) applied for 30 s. The mice were pretreated with either saline, brivaracetam (i.p., 30 min) or levetiracetam (i.p., 60 min), and the proportion of mice protected against clonic convulsions was used as the end point to assess anticonvulsant activity.

Experiment [2] relates to epilepsy patients. The conditions noted are these: adult patients, adjunctive treatment; cited from earlier work.
Experiment [3] relates to patients with post-herpetic neuralgia. The conditions noted are these: cited from earlier work.
The subject of experiment [4] is pentylenetetrazol-induced clonic convulsions in mice. As to the kind of experiment: Chemically induced seizures in mice (pentylenetetrazol). In kind it is in vivo. The conditions noted are these: i.p. 30 min before seizure induction, higher ED50 values than audiogenic model. The method, then: The dose was selected based on dose-effect curves in saline-treated animals as the convulsive dose inducing clonic convulsions of all four extremities in 97% of the animals. Immediately after administration of the chemoconvulsant, the mice were placed individually in small plastic cages (25 13 8 cm) and observed for the presence of clonic convulsions in all four extremities, for 60 min. The occurrence of tonic convulsions (hindlimb extension) and mortality was also recorded during this interval. The proportion of mice protected against clonic convulsions was calculated and used as the end point for anticonvulsant activity.

The test system of experiment [5] is rat hippocampal slices. As to the kind of experiment: Epileptiform responses in hippocampal slices (field potentials, CA3 area). Format: cell-based, Sprague-Dawley rats. Set-up: rate of spontaneous field bursting in HKLCF: dose or concentration left out as unconfirmed. The conditions noted are these: for evoked epileptiform responses (PS1 amplitude, repetitive PSs) in HKLCF: CA3 area, fimbrial stimulation, high-K+/low-Ca2+ fluid. Here is the method: The effect of brivaracetam on epileptiform responses induced by high-K+/low-Ca2+ concentrations or by bicuculline was examined in transverse hippocampal slices prepared from Sprague-Dawley rats according to previously reported standard procedures. The epileptiform responses were induced by passing from a normal perfusion of artificial cerebrospinal fluid (ACSF) (K+3 mM; Ca2+2.4 mM) to either high-K+/low-Ca2+ fluid (HKLCF) (K+7.5 mM; Ca2+0.5 mM) or to […] bicuculline methiodide (BMI)-containing ACSF.
Extracellular field potentials (FPs) were recorded in the CA3 area of the slices with 2 M NaCl-filled glass microelectrodes. The evoked FPs were recorded at 10-min intervals in response to fimbrial stimulation with constant current rectangular pulses that elicit a single population spike (PS) of 50-75% of the maximal amplitude when the slice is in ACSF. In the HKLCF model, 2 min of spontaneous activity were also recorded, in the middle of each 10-min interval between the recordings of evoked responses.
Either brivaracetam or levetiracetam was added to the bathing fluid of the slices 20 min before shifting from ACSF to either HKLCF or […] BMI-containing ACSF, and was kept in the perfusion fluid throughout the experiment.

Experiment [6] relates to corneally kindled mice. As to the kind of experiment: Corneal kindling of mice. In kind it is in vivo.
For experiment [7], the system named is amygdala-kindled rats. As to the kind of experiment: Fully amygdala-kindled rats. In kind it is in vivo, rat. The conditions noted are these: for dose significantly reducing the after-discharge duration: 212.3 is the highest brivaracetam dose tested.
In experiment [8] the test system is GAERS rats. As to the kind of experiment: Spontaneous SWDs in GAERS rats. Format: in vivo, rat.
The test system of experiment [9] is rat hippocampal slices. The conditions noted are these: cited from earlier work.

Turning to `CCC[C@@H]1CC(=O)N([C@@H](CC)C(N)=O)C1` [Brivaracetam, (2S)-2-[(4R)-2-oxo-4-propyl-pyrrolidin-1-yl] butanamide], the “protection against the expression of clonic convulsions” value in [1] is listed as “protected against the expression of clonic convulsions”. The “efficacy in the treatment of epilepsy” value in experiment [2] was “effective in the treatment of epilepsy”. In addition, in experiment [3], the “efficacy in the treatment of post-herpetic neuralgia” value was “effective in the treatment of patients with post-herpetic neuralgia”. Besides, in [4], the “protection against clonic convulsions induced by pentylenetetrazol” value is given as “protected against clonic convulsions induced by pentylenetetrazol”. In addition, in [5], the “rate of spontaneous field bursting in HKLCF” value is reported as “reduced the rate of this spontaneous bursting” and the “evoked epileptiform responses (PS1 amplitude, repetitive PSs) in HKLCF” value is reported as “reduced these epileptiform responses”. Also, in experiment [6] (continued corneal stimulations, group previously treated with the highest dose), the “incidence of generalized motor seizures after termination of treatment” value is recorded as “persistent reduction in the incidence of generalized motor seizures”. Moreover, the “incidence of generalized motor seizures” value in experiment [6] (pretreatment during corneal kindling of mice) is given as “significant reduction in the incidence of generalized motor seizures”. In experiment [7], the “dose from which significant suppression in motor-seizure severity is induced” value was no less than 21.2 mg/kg and the “dose significantly reducing the after-discharge duration” value is 212.3 mg/kg. In experiment [8], the “dose from which spontaneous SWDs are significantly suppressed” value is no less than 2.1 mg/kg. Further, the “dose giving complete inhibition of spontaneous SWDs” value in experiment [8] (highest dose tested) is 67.9 mg/kg.

As for `CC[C@@H](C(N)=O)N1C[C@H](C=C(F)F)CC1=O` [Seletracetam, (2S)-2-[(4S)-4-(2,2-difluorovinyl)-2-oxo-pyrrolidin-1-yl]butanamide], the “efficacy in the treatment of epilepsy” value in [2] is recorded as “effective in the treatment of epilepsy”.

For `CC[C@@H](C(N)=O)N1CCCC1=O` [Levetiracetam], the “protection against the expression of clonic convulsions” value in [1] is given as “protected against the expression of clonic convulsions”. In addition, in [9], the “epileptiform responses induced by high-K+/low-Ca2+ concentrations in the perfusion fluid and by bicuculline” value is given as “reduces epileptiform responses”. For the same compound, in experiment [5], the “evoked epileptiform responses (PS1 amplitude, repetitive PSs) in HKLCF” value is “reduced these epileptiform responses”. Moreover, in [7], the “dose from which significant suppression in motor-seizure severity is induced” value was no less than 170 mg/kg and the “dose significantly reducing the after-discharge duration” value is greater than 1700 mg/kg.
